Results on eight compounds are retold here after PubChem BioAssay (NCI).

“And” between values parts separate entries of the source, which are not always exact repeats. Equal values may be shown once.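 All cell lines were grown in 96-well plates and treated with compound for 48 hours. Here, GI50 denotes the concentration required for 50% inhibition of growth. The concentration for full growth arrest is given as TGI.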

Some test systems named below: HCT-116 colon; K-562 leukemia; NCI-H226 lung; MALME-3M melanoma; HT29 colon; HOP-92 NSCLC; LOX IMVI melanoma; SF-295 CNS; SR leukemia; OVCAR-3 ovarian.
Common to all, as to test: DTP human tumour cell line panel, 48 h

`O=C(Nc1cccc(Cl)c1)c1cc(Cl)ccc1O`: the GI50 in the experiment on HCT-116 colon is 0.562 µM; in the experiment with K-562 leukemia it was 0.542 µM; in the experiment on NCI-H226 lung, 1.05 µM; in the experiment on MALME-3M melanoma it was 0.4 µM; in the experiment on HT29 colon, 2.49 µM; in the experiment on HOP-92 NSCLC, 0.169 µM. Also, the GI50 with LOX IMVI melanoma was 0.543 µM; with SF-295 CNS it was 1.21 µM; in the experiment with SR leukemia, 0.457 µM; in the experiment with OVCAR-3 ovarian, 1.04 µM. For the same compound, the TGI was 2.12 µM with HCT-116 colon; above 100 µM in the experiment on K-562 leukemia; 4.12 µM in the experiment on NCI-H226 lung; 2.66 µM with MALME-3M melanoma; 7.12 µM in the experiment on HT29 colon; 0.571 µM in the experiment on HOP-92 NSCLC. Also, the TGI in the experiment with LOX IMVI melanoma was 2.26 µM; in the experiment on SF-295 CNS, 3.75 µM; with SR leukemia, 2.96 µM; with OVCAR-3 ovarian it was above 100 µM.
In the case of `Oc1cccc(-c2nc(N3CCOCC3)c3oc4ncccc4c3n2)c1`, the GI50 is 0.53 µM and 0.426 µM with HCT-116 colon; 1.35 µM and 2.18 µM in the experiment with K-562 leukemia; 4.12 µM and 7.21 µM in the experiment on NCI-H226 lung; 0.0373 µM and 0.0287 µM in the experiment with MALME-3M melanoma; 6.52 µM and 8.37 µM in the experiment on HT29 colon; 0.0237 µM and 0.0243 µM in the experiment with HOP-92 NSCLC. Moreover, the GI50 in the experiment with LOX IMVI melanoma was 0.158 µM and 0.151 µM; in the experiment with SF-295 CNS it was 1.21 µM and 1.62 µM; in the experiment on SR leukemia, 0.244 µM; in the experiment on OVCAR-3 ovarian, 0.164 µM and 0.213 µM. The TGI was above 100 µM in the experiment on HCT-116 colon; above 100 µM with K-562 leukemia; 78.6 µM and 68.3 µM in the experiment on NCI-H226 lung; 0.395 µM and 0.264 µM in the experiment on MALME-3M melanoma; above 100 µM in the experiment on HT29 colon; 0.131 µM and 0.216 µM in the experiment with HOP-92 NSCLC. The TGI in the experiment on LOX IMVI melanoma was 2.33 µM and 3.02 µM; in the experiment on SF-295 CNS it was 4.08 µM and 4.6 µM; with SR leukemia, 7.42 µM; with OVCAR-3 ovarian, 0.811 µM and 3.24 µM.
On to `COC(=O)C1=C(C(=O)OC)N(C(C)C)[C@H]2C(C(=O)OC)=C(C(=O)OC)N(C(C)C)[C@@H]12`, for which the TGI with HCT-116 colon, in the experiment with K-562 leukemia, in the experiment on NCI-H226 lung, in the experiment on MALME-3M melanoma, in the experiment with HT29 colon and in the experiment with HOP-92 NSCLC was above 100 µM throughout. Further, the TGI in the experiment with LOX IMVI melanoma, in the experiment on SF-295 CNS, with SR leukemia and in the experiment with OVCAR-3 ovarian was above 100 µM in each case.
`COc1cc(/C=C2\C(=O)Nc3ccc(Br)cc32)cc(OC)c1OC`: the GI50 in the experiment with HCT-116 colon is 4.86 µM; in the experiment with K-562 leukemia, 1.11 µM; in the experiment on NCI-H226 lung, 60.9 µM; in the experiment on MALME-3M melanoma it was 0.606 µM; in the experiment on HT29 colon, 3.82 µM; with HOP-92 NSCLC it was 2.68 µM. Besides, the GI50 in the experiment with LOX IMVI melanoma is 10.6 µM; in the experiment with SF-295 CNS, 12 µM; in the experiment on SR leukemia it was 0.304 µM; in the experiment on OVCAR-3 ovarian it was 5.59 µM. The TGI in the experiment on HCT-116 colon is above 100 µM; in the experiment on K-562 leukemia, above 100 µM; with NCI-H226 lung, above 100 µM; with MALME-3M melanoma, 16.8 µM; in the experiment on HT29 colon, above 100 µM; in the experiment with HOP-92 NSCLC, 24.8 µM. Further, the TGI in the experiment on LOX IMVI melanoma is above 100 µM; in the experiment on SF-295 CNS, 68.9 µM; with SR leukemia, 3.08 µM; in the experiment on OVCAR-3 ovarian, above 56.9 µM.
For the compound `CCOc1ccccc1NC(=O)CCC(=O)NN`, the TGI in the experiment with HCT-116 colon, in the experiment on K-562 leukemia, with NCI-H226 lung, in the experiment on MALME-3M melanoma, in the experiment with HT29 colon and in the experiment with HOP-92 NSCLC was above 100 µM throughout. The TGI in the experiment with LOX IMVI melanoma is above 100 µM; in the experiment on SF-295 CNS, above 100 µM; with SR leukemia it was 70.1 µM; in the experiment on OVCAR-3 ovarian, above 100 µM.
As for `OCCN(CCO)c1ncnc2c1sc(=S)n2-c1ccccc1`, the TGI in the experiment with HCT-116 colon, with K-562 leukemia, in the experiment on NCI-H226 lung, with MALME-3M melanoma, with HT29 colon and in the experiment on HOP-92 NSCLC was above 100 µM each time. Further, the concentration for total growth inhibition (TGI) with LOX IMVI melanoma, with SF-295 CNS, with SR leukemia and in the experiment on OVCAR-3 ovarian was above 100 µM in each case.
As for `Cc1nnc(N=Nc2c(O)[nH]c3ccccc23)[nH]c1=O`, the TGI in the experiment on HCT-116 colon, in the experiment on K-562 leukemia, in the experiment on NCI-H226 lung, with MALME-3M melanoma, with HT29 colon and in the experiment with HOP-92 NSCLC was above 100 µM in each case. The TGI in the experiment on LOX IMVI melanoma, in the experiment with SF-295 CNS, in the experiment on SR leukemia and with OVCAR-3 ovarian was above 100 µM in each case.
For `COc1ccc(CNC(=O)c2ccc(-c3cc(-c4nnc(C)o4)ccc3C)cc2)cc1`, the GI50 with HCT-116 colon was 14.6 µM; with K-562 leukemia it was 11.2 µM; in the experiment on NCI-H226 lung it was above 20.4 µM; in the experiment on MALME-3M melanoma it was 5.37 µM; in the experiment with HT29 colon, above 25 µM; in the experiment on HOP-92 NSCLC, 2.11 µM. Moreover, the GI50 in the experiment with LOX IMVI melanoma was above 25 µM; in the experiment with SF-295 CNS it was 7.6 µM; with SR leukemia, above 25 µM; in the experiment with OVCAR-3 ovarian, 17.1 µM. Further, the TGI in the experiment with HCT-116 colon, with K-562 leukemia, in the experiment on NCI-H226 lung, with MALME-3M melanoma, with HT29 colon and in the experiment with HOP-92 NSCLC was above 25 µM each time. Besides, the TGI in the experiment with LOX IMVI melanoma, in the experiment with SF-295 CNS, in the experiment on SR leukemia and with OVCAR-3 ovarian was above 25 µM each time.

The term GI50 denotes the concentration giving 50% growth inhibition. As a reminder, the TGI is the concentration at which net growth stops. A low value points to more potent growth arrest.
